The assay deals with Human cGAS amino acids 155-522 (Homo sapiens (Human), UniProt Q8N884). The experiment in a line: cGAS biochemical activity assay (ATP remaining, Kinase-Glo Max luminescence). Particulars: human cGAS 155-522, ATP remaining (Kinase-Glo Max); read-out: cGAS IC50. (Kinase-Glo reads ATP consumption through a luciferase reaction.)
Chain of Human cGAS amino acids 155-522 (Q8N884 157-522): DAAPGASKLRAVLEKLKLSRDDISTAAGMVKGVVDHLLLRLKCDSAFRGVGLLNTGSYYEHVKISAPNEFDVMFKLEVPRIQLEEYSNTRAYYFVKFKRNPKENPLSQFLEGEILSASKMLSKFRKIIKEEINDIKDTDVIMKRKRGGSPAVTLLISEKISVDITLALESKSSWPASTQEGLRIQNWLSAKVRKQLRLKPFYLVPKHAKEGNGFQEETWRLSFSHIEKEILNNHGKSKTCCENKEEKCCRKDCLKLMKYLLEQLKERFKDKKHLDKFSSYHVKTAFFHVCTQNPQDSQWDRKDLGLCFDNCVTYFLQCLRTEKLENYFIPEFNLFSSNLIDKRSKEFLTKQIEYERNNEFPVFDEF
Regarding `CO[C@H]1CCCC1c1nnc(-c2c(C)[nH]c3c(-c4ccccc4)c(C(F)(F)F)nn3c2=O)o1` (stereo partly shown) [D1049 Iso-1], the concentration for half-maximal inhibition (IC50) (as a rule, the midpoint of a concentration-inhibition curve) is less than 20 µM.

On to `Cc1[nH]c2c(-c3ccccc3)c(C(F)(F)F)nn2c(=O)c1C(=O)Nc1cccc(Cl)c1` [Compound A1030, N-(3-chlorophenyl)-5-methyl-7-oxo-3-phenyl-2-(trifluoromethyl)-4,7-dihydropyrazolo[1,5-a]pyrimidine-6-carboxamide], for which the concentration for half-maximal inhibition (IC50) is less than 20 µM.

In the case of `COc1cccc2c1nc(-c1c(C)[nH]c3c(-c4ccccc4)c(C(F)(F)F)nn3c1=O)n2CC1CC1` [Compound C1189, 6-(1-(cyclopropylmethyl)-4-methoxy-1H-benzo[d]imidazol-2-yl)-5-methyl-3-phenyl-2-(trifluoromethyl)pyrazolo[1,5-a]pyrimidin-7(4H)-one], the IC50 fell in the range of 20 to 250 µM.

Consider `Cc1[nH]c2c(-c3ccccc3)c(C(F)(F)F)nn2c(=O)c1C(=O)Nc1ccccc1OC(C)C` [Compound A1060, N-(2-isopropoxyphenyl)-5-methyl-7-oxo-3-phenyl-2-(trifluoromethyl)-4,7-dihydropyrazolo[1,5-a]pyrimidine-6-carboxamide], for which the IC50 fell in the range of 20 to 250 µM.

On to `Cc1[nH]c2c(-c3ccccc3)c(C(F)(F)F)nn2c(=O)c1C(=O)Nc1ccccc1OC1CCCC1` [Compound A1044, N-(2-(cyclopentyloxy)phenyl)-5-methyl-7-oxo-3-phenyl-2-(trifluoromethyl)-4,7-dihydropyrazolo[1,5-a]pyrimidine-6-carboxamide], for which the half-maximal inhibitory concentration (IC50) was 20 to 250 µM.

As to `Cc1[nH]c2c(-c3ccccc3)c(C(F)(F)F)nn2c(=O)c1-c1nnc(-c2ccccc2)o1` [Compound D1011, 5-methyl-3-phenyl-6-(5-phenyl-1,3,4-oxadiazol-2-yl)-2-(trifluoromethyl)pyrazolo[1,5-a]pyrimidin-7(4H)-one], the half-maximal inhibitory concentration (IC50) is greater than 250 µM.

`Cc1[nH]c2c(-c3ccccc3)c(C(F)(F)F)nn2c(=O)c1-c1nnc(C2CCCC2)o1` [Compound D1003, 6-(5-cyclopentyl-1,3,4-oxadiazol-2-yl)-5-methyl-3-phenyl-2-(trifluoromethyl)pyrazolo[1,5-a]pyrimidin-7(4H)-one]: the IC50 was less than 20 µM.

Regarding `COc1cccc2oc(-c3c(C)[nH]c4c(-c5ccccc5)c(OCC(=O)O)nn4c3=O)nc12` [Compound C1072, 2-((6-(4-methoxybenzo[d]oxazol-2-yl)-5-methyl-7-oxo-3-phenyl-4,7-dihydropyrazolo[1,5-a]pyrimidin-2-yl)oxy)acetic acid], the IC50 was in the range of 20 to 250 µM.

As to `Cc1[nH]c2c(-c3ccccc3)c(C(F)(F)F)nn2c(=O)c1-c1nnc(C(C)C)o1` [Compound D1005, 6-(5-isopropyl-1,3,4-oxadiazol-2-yl)-5-methyl-3-phenyl-2-(trifluoromethyl)pyrazolo[1,5-a]pyrimidin-7(4H)-one], the IC50 was in the range of 20 to 250 µM.

Take `COc1cccc2oc(-c3c(C)[nH]c4c(-c5ccccc5)c(C5CC5)nn4c3=O)nc12` [Compound C1242, 2-cyclopropyl-6-(4-methoxybenzo[d]oxazol-2-yl)-5-methyl-3-phenylpyrazolo[1,5-a]pyrimidin-7(4H)-one]: the IC50 was greater than 250 µM.

With `COc1cccc2oc(-c3c(C(=O)N[C@@H](C)CO)[nH]c4c(-c5ccccc5)c(C(F)(F)F)nn4c3=O)nc12` [Compound C1196, (S)-N-(1-hydroxypropan-2-yl)-6-(4-methoxybenzo[d]oxazol-2-yl)-7-oxo-3-phenyl-2-(trifluoromethyl)-4,7-dihydropyrazolo[1,5-a]pyrimidine-5-carboxamide], the half-inhibitory concentration (IC50) was less than 20 µM.

Regarding `COc1cccn2c(CO)c(-c3c(C)[nH]c4c(-c5ccccc5)c(C(F)(F)F)nn4c3=O)nc12` [Compound C1215, 6-(3-(hydroxymethyl)-8-methoxyimidazo[1,2-a]pyridin-2-yl)-5-methyl-3-phenyl-2-(trifluoromethyl)pyrazolo[1,5-a]pyrimidin-7(4H)-one], the half-maximal inhibitory concentration (IC50) was 20 to 250 µM.

As for `COc1cccc2oc(-c3c(C)[nH]c4c(-c5ccccc5C#N)c(C(F)(F)F)nn4c3=O)nc12` [Compound C1148, 2-(6-(4-methoxybenzo[d]oxazol-2-yl)-5-methyl-7-oxo-2-(trifluoromethyl)-4,7-dihydropyrazolo[1,5-a]pyrimidin-3-yl)benzonitrile], the IC50 lay in the range of 20 to 250 µM.

With `Cc1[nH]c2c(-c3cccc(F)c3)c(C(F)(F)F)nn2c(=O)c1-c1nc2c(o1)CCCC2` [Compound C1035, 3-(3-fluorophenyl)-5-methyl-6-(4,5,6,7-tetrahydrobenzo[d]oxazol-2-yl)-2-(trifluoromethyl)pyrazolo[1,5-a]pyrimidin-7(4H)-one], the IC50 is greater than 250 µM.

In the case of `COc1cc(F)c(F)cc1NC(=O)c1c(C)[nH]c2c(-c3ccccc3)c(C(F)(F)F)nn2c1=O` [Compound A1080, N-(4,5-difluoro-2-methoxyphenyl)-5-methyl-7-oxo-3-phenyl-2-(trifluoromethyl)-4,7-dihydropyrazolo[1,5-a]pyrimidine-6-carboxamide], the IC50 fell in the range of 20 to 250 µM.

Consider `Cc1[nH]c2c(-c3ccccc3)c(C(F)(F)F)nn2c(=O)c1-c1nnc(-c2ccc(N)cc2)o1` [Compound D1081, 6-(5-(4-aminophenyl)-1,3,4-oxadiazol-2-yl)-5-methyl-3-phenyl-2-(trifluoromethyl)pyrazolo[1,5-a]pyrimidin-7(4H)-one], for which the IC50 was greater than 250 µM.

On to `COCCNC(=O)Cc1c(C)[nH]c2c(-c3ccccc3)c(C(F)(F)F)nn2c1=O` [Compound B1003, N-(2-methoxyethyl)-2-(5-methyl-7-oxo-3-phenyl-2-(trifluoromethyl)-4,7-dihydropyrazolo[1,5-a]pyrimidin-6-yl)acetamide], for which the concentration for half-maximal inhibition (IC50) was greater than 250 µM.

Regarding `Cc1[nH]c2c(-c3ccccc3)c(C#N)nn2c(=O)c1-c1nc2ccccc2n1C1CCCCC1` [Compound C1276, 6-(1-cyclohexyl-1H-benzo[d]imidazol-2-yl)-5-methyl-7-oxo-3-phenyl-4,7-dihydropyrazolo[1,5-a]pyrimidine-2-carbonitrile], the IC50 was less than 20 µM.

As to `Cc1[nH]c2c(-c3ccccc3)c(C(F)(F)F)nn2c(=O)c1-c1nnc(C2CCCN(C(=O)OC(C)(C)C)C2)o1` (stereo not shown) [Compound D1031, tert-butyl 3-(5-(5-methyl-7-oxo-3-phenyl-2-(trifluoromethyl)-4,7-dihydropyrazolo[1,5-a]pyrimidin-6-yl)-1,3,4-oxadiazol-2-yl)piperidine-1-carboxylate], the half-maximal inhibitory concentration (IC50) lay in the range of 20 to 250 µM.

Consider `Cc1[nH]c2c(C3CC3)c(C(F)(F)F)nn2c(=O)c1-c1ccccc1` [Compound C1265, 3-cyclopropyl-5-methyl-6-phenyl-2-(trifluoromethyl)pyrazolo[1,5-a]pyrimidin-7(4H)-one], for which the IC50 was greater than 250 µM.

Turning to `Cc1[nH]c2c(-c3ccccc3)c(C(F)(F)F)nn2c(=O)c1C(=O)Nc1ccc(Cl)cc1` [Compound A1016, N-(4-chlorophenyl)-5-methyl-7-oxo-3-phenyl-2-(trifluoromethyl)-4,7-dihydropyrazolo[1,5-a]pyrimidine-6-carboxamide], the 50% inhibitory concentration (IC50) lay in the range of 20 to 250 µM.

Take `Cc1[nH]c2c(-c3ccccc3)c(C(F)(F)F)nn2c(=O)c1CC(=O)N1CCOCC1` [Compound B1002, 5-methyl-6-(2-morpholino-2-oxoethyl)-3-phenyl-2-(trifluoromethyl)pyrazolo[1,5-a]pyrimidin-7(4H)-one]: the IC50 is greater than 250 µM.

Regarding `Cc1[nH]c2c(-c3ccccc3)c(C(F)(F)F)nn2c(=O)c1-c1nnc(-c2ccc([N+](=O)[O-])cc2)o1` [Compound D1061, 5-methyl-6-(5-(4-nitrophenyl)-1,3,4-oxadiazol-2-yl)-3-phenyl-2-(trifluoromethyl)pyrazolo[1,5-a]pyrimidin-7(4H)-one], the half-maximal inhibitory concentration (IC50) was 20 to 250 µM.

Take `Cc1[nH]c2c(-c3ccccc3)c(C(F)(F)F)nn2c(=O)c1C(=O)N[C@@H]1CCCC[C@H]1N` [Compound A1014, N-((1R,2R)-2-aminocyclohexyl)-5-methyl-7-oxo-3-phenyl-2-(trifluoromethyl)-4,7-dihydropyrazolo[1,5-a]pyrimidine-6-carboxamide]: the half-inhibitory concentration (IC50) is 20 to 250 µM.

On to `Cc1[nH]c2c(-c3ccccc3)c(C(F)(F)F)nn2c(=O)c1C(=O)Nc1[nH]nc(C(F)(F)F)c1C1CCCC1` [Compound A1061, N-(4-cyclopentyl-3-(trifluoromethyl)-1H-pyrazol-5-yl)-5-methyl-7-oxo-3-phenyl-2-(trifluoromethyl)-4,7-dihydropyrazolo[1,5-a]pyrimidine-6-carboxamide], for which the half-inhibitory concentration (IC50) lay within 20 to 250 µM.

On to `CC(=O)N1CCC(c2nnc(-c3c(C)[nH]c4c(-c5ccccc5)c(C(F)(F)F)nn4c3=O)o2)CC1` [Compound D1054, 6-(5-(1-acetylpiperidin-4-yl)-1,3,4-oxadiazol-2-yl)-5-methyl-3-phenyl-2-(trifluoromethyl)pyrazolo[1,5-a]pyrimidin-7(4H)-one], for which the half-maximal inhibitory concentration (IC50) lay within 20 to 250 µM.

For the compound `COc1cccc2oc(-c3c(COCC(N)=O)[nH]c4c(-c5ccccc5)c(C(F)(F)F)nn4c3=O)nc12` [Compound C1198, 2-((6-(4-methoxybenzo[d]oxazol-2-yl)-7-oxo-3-phenyl-2-(trifluoromethyl)-4,7-dihydropyrazolo[1,5-a]pyrimidin-5-yl)methoxy)acetamide], the IC50 lay within 20 to 250 µM.

On to `Cc1[nH]c2c(-c3ccccc3)c(C(F)(F)F)nn2c(=O)c1-c1nnc(N2CCOCC2)o1` [Compound D1009, 5-methyl-6-(5-morpholino-1,3,4-oxadiazol-2-yl)-3-phenyl-2-(trifluoromethyl)pyrazolo[1,5-a]pyrimidin-7(4H)-one], for which the half-inhibitory concentration (IC50) was in the range of 20 to 250 µM.

In the case of `COc1cccc2oc(-c3c(C)[nH]c4c(-c5ccccc5)nnn4c3=O)nc12` [Compound E1001, 6-(4-methoxybenzo[d]oxazol-2-yl)-5-methyl-3-phenyl-[1,2,3]triazolo[1,5-a]pyrimidin-7(4H)-one], the 50% inhibitory concentration (IC50) is less than 20 µM.

With `COc1cccc2oc(-c3c(C)[nH]c4c(-c5c(F)cccc5F)c(C(F)(F)F)nn4c3=O)nc12` [Compound C1133, 3-(2,6-difluorophenyl)-6-(4-methoxybenzo[d]oxazol-2-yl)-5-methyl-2-(trifluoromethyl)pyrazolo[1,5-a]pyrimidin-7(4H)-one], the IC50 lay in the range of 20 to 250 µM.

In the case of `CO[C@@H]1CCCCC1c1nnc(-c2c(C)[nH]c3c(-c4ccccc4)c(C(F)(F)F)nn3c2=O)o1` (stereo partly shown) [D1046 Iso-2], the IC50 was less than 20 µM.

The values are drawn from US10738056B2 (Aduro BioTech, Inc., priority 2017, dated 2020).
